From patent publication US9358276B2, “Methods of diagnosing and treating small intestinal bacterial overgrowth (SIBO) and SIBO-related conditions” (Cedars-Sinai Medical Center, priority 1999, dated 2016)
Marks after values point to notes of the source that are not given here.

What was measured:
[1] = test system: SIBO-related hyperalgesia; experiment: Treatment of SIBO-related hyperalgesia (cases); type: in vivo, human
Method: Two adult female subjects with IBS required additional pharmacologic manipulations to treat their SIBO-related hyperalgesia. In the first case, SIBO was eradicated by antibiotic treatment. However, the subject complained of persistent feelings of rectal distension, consistent with residual hyperalgesia related to SIBO. The subjected was then administered Colpermin (peppermint oil) capsules and Elavil (5 mg taken at night) that alleviated their SIBO-related hyperalgesic symptoms, presumably by reducing intestinal wall tension and decreasing mechanoreceptor activation.
The second subject with a diagnosis of IBS was also found to have SIBO, as detected by LBHT. Their SIBO was eradicated by a combined treatment with antibiotic, intestinal lavage with Go-Lytely, and cisapride (10 mg tid) to increase their abnormally low phase III interdigestive motility. After eradication of SIBO, this subject similarly complained of persistent SIBO-related hyperalgesic symptoms of the bowel.

upper gut transit [2] = experiment: Upper gut transit time by lactulose breath hydrogen test after oleate or oleic acid; type: in vivo, human; settings: 4 grams of oleic acid
[3] = test system: rapid upper gut transit and diarrhea; experiment: Continued pre-meal oleate/oleic acid treatment: diarrhea, stool output, symptoms; type: in vivo, human
Text: Continuing oleic acid treatment at home was offered to Aresponders≅ (i.e., patients who experienced a greater than 100% increase in baseline transit time with 3.2 g oleic acid). Of the 36 responders out of the original 45 patients, 18 provided records of stool volume and frequency on- and off-treatment for comparison. The inconvenient and unappealing nature of stool collection and measurement were the primary reasons reported by responders who chose not to participate in stool collection. After completing a set of three preliminary breath hydrogen tests, each participating responder was asked to refrain from taking oleic acid for two days in order to measure off-treatment stool output for a 24-hour period. Patients were issued a stool pattern record form and a stool collection container with graduated volume markings to record the frequency and volume of bowel movements. After two days without oleic acid, each patient took 3.2 g of oleic acid mixed with 25 mL of Ensure emulsion three times a day, 30 minutes before breakfast, lunch and dinner. After taking oleic acid for two days, patients recorded stool output for another 24-hour period. With this oleic acid emulsion treatment, stool frequency decreased from 6.9±0.8 to 5.4±0.9 bowel movements per 24-hour period (p<0.05), and stool volume decreased from 1829.0±368.6 to 1322.5±256.9 per 24-hour period (p<0.05).
The patient was a person with a history of adolescent-onset, persistent diarrhea. […] They presented with complaints of excessive gas, postprandial bloating, diarrhea and urgency, and 3 to 7 liquid bowel movements per day. Their upper gut transit times were (min) 30 (0 g oleic acid), 117 (1.6 g oleic acid) and 101 (3.2 g oleic acid).

upper gut transit [4] = experiment: Upper gut transit time by lactulose breath hydrogen test after oleate or oleic acid; type: in vivo, human; settings: for upper gut transit time: case, diarrhea-predominant IBS
Text: In a preliminary study, five patients with persistent diarrhea for 3 to 22 months, (one each due to vagal denervation, ileal resection for Crohn's disease, and vagotomy and antrectomy, and two due to idiopathic causes) were studied. […] This test relies on the metabolism of certain carbohydrate materials (e.g. lactulose) by the microbial flora within the caecum. By generating gas which can be detected in the expired air, it is possible to make some estimation about the initial arrival of the administered material within the colon.
Each patient received orally in random order, 0, 1.6 or 3.2 g of sodium oleate in 25 mL Ensure (Ross), followed by 100 mL water. Thirty minutes after each dose of oleate, patients received 10 g lactulose orally, followed by 25 mL water. Breath samples were collected in commercially available breath testing bags (Quintron, Menomonee Falls, Wis.) every 10-15 minutes, and the hydrogen content of the samples was measured using a breath analyzer (Microlyzer Model 12, Quintron Instruments, Menomonee Falls, Wis.), calibrated against gas samples of known hydrogen concentration. With a syringe, a 40-mL sample of the expired breath was withdrawn from the collection bag and analyzed immediately for hydrogen concentration (ppm). The hydrogen concentration value from each sample was plotted against time. Upper gut transit time was defined as the time in minutes from ingestion of lactulose (t0) until a rise of H2 of >10 ppm. Data were further analyzed using 1-way repeated measures analysis of variance (ANOVA)(See Table 4).
The effect of an active lipid on transit time was determined in 8 normal human subjects (1 male and 7 females with a mean age of 35±2.6 years [SE]) and 45 patients (20 males and 25 females with a mean age of 49.1±2.5 [SE], age range from 18 to 90 years) with chronic diarrhea (i.e., continuous diarrhea for more than two months) associated with a wide variety of diagnoses and conditions (e.g., Crohn's disease; irritable bowel syndrome; short bowel syndrome; Indiana pouch; AIDS; ulcerative colitis; vagotomy; antrectomy; ileostomy; partial and complete colectomy; colon cancer; diabetes mellitus type 1; pancreatic insufficiency; radiation enteropathy; esophagectomy/gastric pull-up; total and subtotal gastrectomy; gastrojejunostomy), made by referring gastroenterologists. The method was the same as described above, except oleic acid (Penta Manufacturing, Livingston, N.J.) replaced sodium oleate in 50 mL of Ensure emulsion. All subjects refrained from taking antibiotics for at least two weeks before each testing date and during stool measurement periods. Patients were also instructed to refrain from anti-diarrheal drugs, laxatives, somatostatin analogues or anticholinergics for at least 48 hours before each test. In both the normal and patient groups, there was a significant slowing of upper gut transit time in response to oleic acid, as summarized in Table 5 below (p<0.001).

intestinal transit = experiment: Intestinal transit in multi-fistulated dogs, cumulative % recovery of 99mTc-DTPA; type: in vivo, dog
Text: The experiments described below are based on a previously described chronic multi-fistulated dog model, employing surgically fistulated male or female mongrel dogs weighing about 25 kg each. (Lin, H. C. et al., Inhibition of gastric emptying by glucose depends on length of intestine exposed to nutrient, Am. J. Physiol. 256:G404-G411 [1989]). The small intestines of the dogs were each about 300 cm long from the pylorus to the ileal-cecal valve. The duodenal fistula was situated 15 cm from the pylorus; the mid-gut fistula was situated 160 cm from the pylorus. Occluding Foley catheters (balloon catheters that are inflated to produce a water-tight seal with the lumenal surface) were placed into the distal limb of a duodenal fistula and a mid-gut fistula, fat or other test agents were administered lumenally to the thus compartmentalized Aproximal≅ section of the gut, i.e., between the fistulas, or to the compartmentalized Adistal≅ section of the gut, i.e., beyond the mid-gut fistula. Perfusate was pumped into a test section through the catheter at a rate of 2 mL/minute. Test agents were administered along with buffer perfusate, but some test agents were administered intravenously, where specifically noted.
Intestinal transit measurements were made by tracking the movement of a liquid marker across the approximately 150 cm intestinal test segment by delivering about 20 μCi ^99mTc chelated to diethyltriamine pentaacetic acid (DTPA)(Cunningham, K. M. et al., Use of technicium-99m (V)thiocyanate to measure gastric emptying of fat, J. Nucl. Med. 32:878-881 [1991]) as a bolus into the test segment after 60 minutes of a 90-minute perfusion. The output from the mid-gut fistula was collected every 5 min thereafter for 30 minutes, which period is illustrated in FIGS. 9-23. Using a matched dose of ^99mTc to represent the original radioactivity (Johansson, C., Studies of gastrointestinal interactions, Scand. J. Gastroenterol. 9(Suppl 28):1-60 [1974]; Zierler, K., A simplified explanation of the theory of indicator dilution for measurement of fluid flow and volume and other distributive phenomena, Bull. John Hopkins 103:199-217 [1958]), the radioactivity delivered into the animal as well as the radioactivity of the recovered fistula output were all measured using a gamma well counter. After correcting all counts to time zero, intestinal transit was calculated as the cumulative percent recovery of the delivered ^99mTc-DTPA. This method has been well validated over the years and appreciated for its advantage of minimal inadvertent marker loss. […] There was a very high level of marker recovery, with 90% of the marker recovered by 30 minutes and 98% of the marker recovered by 45 minutes.

ileal brake = settings: rats, subcutaneous administration; Brown et al. 1993; cited from earlier work
SIBO [5] = experiment: Case: autism with bowel symptoms, Augmentin; type: in vivo, human; settings: one patient
SIBO [6] = experiment: Comparison of antibiotic regimes for eradicating SIBO, follow-up lactulose breath hydrogen test (LBHT); type: in vivo, human; settings: follow-up LBHT
Method: Subjects were tested after an overnight fast. […] Each breath sample was then analyzed for hydrogen content with a gas chromatograph (Quintron Model DP, Quintron Instrument Co., Division of E.F. Brewer Co, Menomonee Falls, Wis. 53051), standardized using a QuinGas standard as instructed by the manufacturer. Hydrogen peaks were plotted before and after an antimicrobial treatment regimen for comparison. The normal range for the second hydrogen peak was 0 to 20 ppm. Subjects referred to the Cedars-Sinai GI Motility Program for a lactulose breath hydrogen test (LBHT) to assess SIBO were entered into a database. Those that tested positive for SIBO were given antibiotic treatment by their referring physician and in some cases, returned for a follow-up LBHT to assess eradication of SIBO. During the follow-up LBHT, subjects were asked which antibiotic they were given to treat their SIBO. The eradication rate of each antibiotic was evaluated. Of the 771 subjects in the database, 561 (73%) tested positive for SIBO. […] (See Table 1 below). […] None of the commonly used antibiotics was universally successful in eradicating overgrowth.

CN(C)CCC=C1c2ccccc2CCc2ccccc21 [Elavil, amitriptyline]
SIBO-related hyperalgesic symptoms ([1]; first subject, Colpermin capsules and Elavil (5 mg at night) together): alleviated

COc1cc(N)c(Cl)cc1C(=O)NC1CCN(CCCOc2ccc(F)cc2)CC1OC (stereo not drawn) [cisapride]
eradication of SIBO ([1]; second subject, combined antibiotic, lavage with Go-Lytely and cisapride (10 mg tid)): eradicated

CCCCCCCC/C=C\CCCCCCCC(=O)O [oleic acid]
mean transit time (upper gut transit [2]; IBD patients (n=18)): 114.6 ± 16.0 min
mean transit time (upper gut transit [2]; normal subjects (n=5)): 136.0 ± 15.4 min
stool frequency, bowel movements per 24-hour period ([3]; 18 responders, 3.2 g in 25 mL Ensure three times a day, off-treatment 6.9±0.8): 5.4±0.9
stool volume per 24-hour period ([3]; 18 responders, on treatment, off-treatment 1829.0±368.6): 1322.5±256.9
symptoms of gaseousness, bloating and rectal urgency ([3]; case, diarrhea-predominant IBS): complete relief
bowel frequency ([3]; case, diarrhea-predominant IBS, continuing treatment): single, solid bowel movement per day
adverse effect reported ([3]; only adverse effect reported by any patient): slight and transient burning sensation in the mouth or throat
responders (greater than 100% increase in baseline transit time) (upper gut transit [4]; 3.2 g oleic acid, out of the original 45 patients): 36
Transit time (mean ± SE) (upper gut transit [4]; Normal subjects (8), 1.6 g oleic acid in 50 mL Ensure): 116 ± 11.1 min
Transit time (mean ± SE) (upper gut transit [4]; Normal subjects (8), 3.2 g oleic acid): 140 ± 11.5 min
Transit time (mean ± SE) (upper gut transit [4]; Patients with chronic diarrhea (45), 1.6 g oleic acid): 57.2 ± 4.5 min
Transit time (mean ± SE) (upper gut transit [4]; Patients with chronic diarrhea (45), 3.2 g oleic acid): 83.3 ± 5.2 min
upper gut transit time (upper gut transit [4]; 1.6 g oleic acid): 117 min
upper gut transit time (upper gut transit [4]; 3.2 g oleic acid): 101 min

Cc1nccn1CC1CCc2c(c3ccccc3n2C)C1=O (stereo not drawn) [ondansetron]
Transit Across Proximal Gut (Cumulative % Marker Recovered) (intestinal transit; Buffer + NE + Ond perfused lumenally 0.7 mg/kg/h): 63.0 ± 4.4^b %
marker recovery (intestinal transit; IV PYY + ondansetron 0.7 mg/kg/h in proximal gut): 78.3±4.8%
marker recovery (intestinal transit; IV PYY + ondansetron in distal gut): 12.9±12.9%
marker recovery (intestinal transit; distal gut 5-HT + ondansetron 0.7 mg/kg bolus in distal gut): 79.5±2.4%
marker recovery (intestinal transit; distal gut 5-HT + ondansetron 0.7 mg/kg bolus in proximal gut): 73.8±9.5%
marker recovery (intestinal transit; ileal brake + 6.25 mg ondansetron bolus, proximal gut): 35.4%
marker recovery (intestinal transit; ileal brake + 12.5 mg ondansetron bolus, proximal gut): 55.8%
marker recovery (intestinal transit; ileal brake + 25 mg ondansetron bolus, proximal gut): 77.6%
marker recovery (intestinal transit; ileal brake + intravenous ondansetron 0.15 mg/kg/1.5 h, n=2): 13±2.0%
marker recovery (intestinal transit; ileal brake + lumenal ondansetron 0.7 mg/kg/h in proximal gut, n=2): 78±2.4%
marker recovery (intestinal transit; ileal brake + ondansetron in distal gut, n=4): 22.8±2.6%
marker recovery (intestinal transit; ileal brake + ondansetron in proximal gut, n=4): 68.5±2.7%
marker recovery (intestinal transit; intravenous norepinephrine + ondansetron 0.7 mg/kg/h in proximal gut): 63.4%
marker recovery (intestinal transit; lumenal buffer + lumenal ondansetron, Buffer-NS 96.0±4.0%): 57.9±15.9%
marker recovery (intestinal transit; lumenal oleate + lumenal ondansetron 0.7 mg/kg bolus, proximal gut): 73.7±10.6%
ileal brake induced by ileal infusion of lipid (ileal brake): abolished the ileal brake
intestinal transit of a baked bean meal (ileal brake): delayed

Augmentin
concentration and behavior (SIBO [5]): some positive concentration and behavioral changes
bowel habits (SIBO [5]; 500 mg twice a day for ten days): substantial improvement
% Patients with SIBO Eradicated (SIBO [6]): 50%
